Among the data in ChEMBL document CHEMBL1136591, “Novel N1-(benzyl)cinnamamidine derived NR2B subtype-selective NMDA receptor antagonists” (Bioorg Med Chem Lett, 2003) are IC50 and Ki values, retold here.

In one assay the target is T1, Glutamate NMDA receptor; GRIN1/GRIN2B (Homo sapiens, UniProt Q05586+Q13224). The experiment in a line: Inhibition of the response to glutamate/glycine in NR1a/NR2B expressing cells. The class given is functional, cell-based.
T1 sequence (Q13224 whole entry, other chains not shown): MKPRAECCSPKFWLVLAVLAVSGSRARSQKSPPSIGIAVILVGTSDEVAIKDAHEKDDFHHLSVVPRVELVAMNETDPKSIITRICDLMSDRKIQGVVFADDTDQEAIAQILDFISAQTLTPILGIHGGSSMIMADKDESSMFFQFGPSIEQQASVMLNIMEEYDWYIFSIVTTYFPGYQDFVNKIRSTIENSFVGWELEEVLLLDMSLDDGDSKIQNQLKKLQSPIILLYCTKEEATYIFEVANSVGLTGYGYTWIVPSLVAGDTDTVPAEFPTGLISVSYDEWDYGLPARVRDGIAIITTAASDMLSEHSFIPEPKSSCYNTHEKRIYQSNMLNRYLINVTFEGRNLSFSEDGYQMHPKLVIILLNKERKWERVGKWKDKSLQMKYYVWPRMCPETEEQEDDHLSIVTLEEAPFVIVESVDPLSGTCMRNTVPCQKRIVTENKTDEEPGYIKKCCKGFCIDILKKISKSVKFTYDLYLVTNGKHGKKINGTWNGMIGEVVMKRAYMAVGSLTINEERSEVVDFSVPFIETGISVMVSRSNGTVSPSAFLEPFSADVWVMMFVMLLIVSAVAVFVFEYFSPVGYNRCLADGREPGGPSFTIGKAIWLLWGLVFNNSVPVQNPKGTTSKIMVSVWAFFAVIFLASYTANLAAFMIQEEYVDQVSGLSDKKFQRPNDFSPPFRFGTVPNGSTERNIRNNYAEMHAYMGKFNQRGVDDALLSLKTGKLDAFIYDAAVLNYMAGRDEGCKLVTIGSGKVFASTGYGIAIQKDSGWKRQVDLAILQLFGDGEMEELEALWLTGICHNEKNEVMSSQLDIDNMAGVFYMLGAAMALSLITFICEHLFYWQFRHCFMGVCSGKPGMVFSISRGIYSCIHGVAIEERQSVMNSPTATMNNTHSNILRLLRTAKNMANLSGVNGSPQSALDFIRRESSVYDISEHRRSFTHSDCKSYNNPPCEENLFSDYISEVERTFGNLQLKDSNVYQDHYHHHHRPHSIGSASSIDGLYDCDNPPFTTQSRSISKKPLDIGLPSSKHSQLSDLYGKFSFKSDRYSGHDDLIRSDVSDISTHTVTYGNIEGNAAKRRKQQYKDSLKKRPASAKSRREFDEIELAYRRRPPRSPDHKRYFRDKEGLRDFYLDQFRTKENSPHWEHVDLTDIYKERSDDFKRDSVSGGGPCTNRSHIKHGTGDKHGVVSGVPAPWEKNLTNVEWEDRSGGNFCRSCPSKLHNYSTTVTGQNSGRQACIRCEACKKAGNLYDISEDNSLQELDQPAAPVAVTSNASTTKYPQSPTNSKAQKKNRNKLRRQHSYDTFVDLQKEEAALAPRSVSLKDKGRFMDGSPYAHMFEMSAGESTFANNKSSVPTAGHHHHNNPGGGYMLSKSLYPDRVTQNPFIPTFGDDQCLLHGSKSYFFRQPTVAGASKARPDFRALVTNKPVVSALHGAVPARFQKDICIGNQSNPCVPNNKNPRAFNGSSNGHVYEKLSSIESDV
A word on the IC50: it is the concentration that gives 50% inhibition. A high value points to a need for much substance. Turning to `N=C(/C=C/c1ccccc1)NCc1ccccc1`, it took 70 nM to reach half-maximal inhibition (IC50).

For another assay, the target named is T1, Glutamate NMDA receptor; GRIN1/GRIN2B. The experiment in a line: Displacement of [3H]ifenprodil binding to recombinant human NR1a/NR2B receptors expressed in L(tk-) cells. The class given is cell-based.
One may read the Ki as a measure of affinity in units of concentration, obtained from inhibition or displacement. Turning to `N=C(/C=C/c1ccccc1)NCc1cccc(C(F)(F)F)c1`, the Ki stood at 31 nM.
On the same count and under the same terms, under `N=C(NCc1ccccc1Cl)c1ccc2ccccc2c1` stands 7.3 nM; under `COc1ccccc1C/N=C(\N)c1ccc2ccccc2c1`, 1.3 nM; under `N=C(/C=C/c1ccccc1)NCc1cc(Cl)ccc1Cl`, 2.7 nM.
On the same count and under the same terms, as for `N=C(/C=C/c1ccccc1)NCc1ccccc1C(F)(F)F`, the figure is 1.4 nM; as for `N=C(/C=C/c1ccccc1)NCc1ccccc1OC(F)(F)F`, 0.6 nM.
Same read-out and setting: as for `N=C(/C=C/c1ccccc1)NCc1ccccc1Cl`, the figure is 1 nM.
With `N=C(/C=C/c1ccccc1)NCc1cccc(Cl)c1`, the Ki was found to be 0.8 nM.
Still for that read-out and setting: as for `N=C(NCc1cccc(Cl)c1)c1ccc2ccccc2c1`, the figure is 1.6 nM; as for `N=C(/C=C/c1cccc(Cl)c1)NCc1ccccc1`, 12 nM; as for `N=C(/C=C/c1ccccc1)NCc1cc(Cl)cc(Cl)c1`, 1.4 nM.
The same measure, in the same setting: as for `N=C(/C=C/c1ccc(F)c(F)c1)NCc1ccccc1`, the figure is 1.7 nM; as for `N=C(/C=C/c1ccccc1)NCc1ccc(Cl)cc1`, 77 nM; as for `N=C(/C=C/C1CCCCC1)NCc1ccccc1`, 19 nM.
On the same count and under the same terms, under `N=C(/C=C/c1ccc(Cl)cc1)NCc1ccccc1` stands 52 nM.
For `N=C(/C=C/c1ccccc1)NCCCc1ccccc1`, the Ki amounted to 120 nM.
On the same count and under the same terms, under `N=C(NCc1ccccc1)c1ccc2ccccc2c1` stands 32 nM; under `COc1cccc(C/N=C(N)/C=C/c2ccccc2)c1`, 1.9 nM; under `N=C(NCCc1ccccc1)c1ccccc1`, 55 nM.
On the same count and under the same terms, under `C[C@@H](CN1CCC(Cc2ccccc2)CC1)[C@@H](O)c1ccc(O)cc1` stands 10 nM.
Turning to `N=C(CCc1ccccc1)NCc1ccccc1`, the Ki amounted to 530 nM.
Still for that read-out and setting: as for `N=C(/C=C/c1ccccc1)NCCc1ccccc1`, the figure is 97 nM; as for `N=C(/C=C/c1ccc(F)cc1)NCc1ccccc1`, 5.7 nM.
On the same count and under the same terms, under `N=C(/C=C/c1ccccc1)NCc1cccc(Cl)c1Cl` stands 3.6 nM; under `NC(=NCc1ccccc1)c1ccccc1`, 10000 nM; under `N=C(/C=C/c1ccccc1Cl)NCc1ccccc1`, 93 nM.
On the same count and under the same terms, as for `CCOc1ccccc1C/N=C(N)/C=C/c1ccccc1`, the figure is 0.5 nM.

The next assay relates to Glutamate NMDA receptor GRIN1/GRIN2A (Homo sapiens). The experiment in a line: Inhibition of the response to glutamate/glycine in NR1a/NR2A expressing cells (No effect uM).
With `N=C(/C=C/c1ccccc1)NCc1ccccc1`, the IC50 entry was “Not Active”.
